Assay results from patent publication US11300570B2, “Therapeutic and diagnostic methods for cancer” (Genentech, Inc., priority 2016, dated 2022).

Tests used:
[1] = system: locally advanced or metastatic NSCLC (PD-L1-unselected patients); experiment: POPLAR Phase II randomized trial, atezolizumab vs docetaxel, in 2L+ PD-L1-unselected NSCLC, efficacy by tTMB; format: in vivo, human
Description: (§1) Patients were eligible for enrollment in the POPLAR study if they had locally advanced or metastatic (e.g., stage IIIB, stage IV, or recurrent) NSCLC; disease progression during or following treatment with a prior platinum-containing regimen for locally advanced, unresectable/inoperable, or metastatic NSCLC, or disease recurrence within 6 months of treatment with a platinum-based adjuvant/neoadjuvant regimen; measurable disease, as defined by RECIST v1.1; and an ECOG performance status of 0 or 1. Participants were randomized to receive either atezolizumab at a dose of 1200 mg intravenously every three weeks or docetaxel 75 mg per meter square (mg/m^2) intravenously every three weeks. Treatment with atezolizumab could be continued as long as participants were experiencing clinical benefit, i.e., in the absence of unacceptable toxicity or symptomatic deterioration attributed to disease progression. Pre-treatment tumor samples from patients in the Phase III OAK trial (Clinical Trial ID No.: NCT02008227) were also evaluated for tTMB. Patients were eligible for enrollment in the OAK study if they had locally advanced or metastatic (e.g., stage IIIB, stage IV, or recurrent) NSCLC; disease progression during or following treatment with a prior platinum-containing regimen for locally advanced, unresectable/inoperable, or metastatic NSCLC, or disease recurrence within 6 months of treatment with a platinum-based adjuvant/neoadjuvant regimen; measurable disease, as defined by RECIST v1.1; and an ECOG performance status of 0 or 1. Participants were randomized to receive either atezolizumab at a dose of 1200 mg intravenously every three weeks or docetaxel 75 mg per square meter (mg/m^2) intravenously every three weeks. Treatment with atezolizumab could be continued as long as participants were experiencing clinical benefit, i.e., in the absence of unacceptable toxicity or symptomatic deterioration attributed to disease progression.
Data from the single-arm, PD-L1-selected trials BIRCH and FIR were combined and analyzed to examine the association between tTMB and clinical outcomes among PD-L1-selected patients. Data from the randomized, PD-L1-unselected trial, POPLAR, were analyzed separately and treatment effects between the atezolizumab- and docetaxel-treatment arms were compared.
To identify somatic mutations, tumor samples (e.g., archival tumor samples) were processed as described in Frampton et al. Nat. Biotechnol. 31:1023-31, 2013. Sequencing libraries were constructed to sequence and analyze samples. In addition to standard mutation processing, a mutation load estimation algorithm was applied that, based on the number of somatic mutations and/or rearrangements detected in Table 1 or Table 2, respectively, extrapolates to the exome or the genome as a whole. For purposes of mutation load estimation, all coding short variant alterations, base substitutions, and indels detected in the genes listed in Table 1 and Table 2 were counted. Further, all coding alterations (base substitutions and indels), including synonymous alterations, with the exception of known oncogenic driver mutations, in the genes listed in Table 1 and Table 2 were counted. However, numerous classes of detected alterations were not counted: non-coding alterations; alterations with known (occurring as known somatic alterations in the COSMIC database (Forbes et al. (2014) Nucl. Acids Res. 43:D805-11) and likely (truncations in tumor suppressor genes) functional status; known germline alterations in the dbSNP database (Sherry et al. (2001) Nucleic Acids Res. 29(1):308-11); germline alterations occurring with two or more counts in the ExAC database (Exome Aggregation Consortium (ExAC), Cambridge, Mass.); alterations that are predicted to be germline in the specimen being assessed; and alterations that are predicted to be germline in a cohort of >60,000 clinical specimens. […]

[2] = system: locally advanced or metastatic NSCLC; experiment: OAK Phase III randomized trial, atezolizumab vs docetaxel, in 2L+ NSCLC, efficacy by tTMB; format: in vivo, human; conditions: 2L+ OAK
Description: as §1
To identify somatic mutations, tumor samples (e.g., archival tumor samples) were processed as described in Frampton et al. Nat. Biotechnol. 31:1023-31, 2013. Sequencing libraries were constructed to sequence and analyze samples. In addition to standard mutation processing, a mutation load estimation algorithm was applied that, based on the number of somatic mutations and/or rearrangements detected in Table 1 or Table 2, respectively, extrapolates to the exome or the genome as a whole. For purposes of mutation load estimation, all coding short variant alterations, base substitutions, and indels detected in the genes listed in Table 1 and Table 2 were counted. Further, all coding alterations (base substitutions and indels), including synonymous alterations, with the exception of known oncogenic driver mutations, in the genes listed in Table 1 and Table 2 were counted. However, numerous classes of detected alterations were not counted: non-coding alterations; alterations with known (occurring as known somatic alterations in the COSMIC database (Forbes et al. (2014) Nucl. Acids Res. 43:D805-11) and likely (truncations in tumor suppressor genes) functional status; known germline alterations in the dbSNP database (Sherry et al. (2001) Nucleic Acids Res. 29(1):308-11); germline alterations occurring with two or more counts in the ExAC database (Exome Aggregation Consortium (ExAC), Cambridge, Mass.); alterations that are predicted to be germline in the specimen being assessed; and alterations that are predicted to be germline in a cohort of >60,000 clinical specimens. Finally, to calculate the mutation load per megabase, the total number of mutations counted was divided by the coding region target territory of the test, which was 1.110 megabases (Mb) for the current version of the test. The average median coverage value for all samples was 490.
The BEP was defined as patients with at least one tTMB measurement from a baseline tumor sample. […]

[3] = BEP (evaluable for TMB) (n = 174 atezolizumab, 186 docetaxel)
[4] = tTMB score <9 mut/Mb (n = 91 atezolizumab, 87 docetaxel)
[5] = tTMB score <16 mut/Mb (n = 135 atezolizumab, 136 docetaxel)
[6] = tTMB score ≥9 mut/Mb (n = 83 atezolizumab, 99 docetaxel)
[7] = tTMB score ≥16 mut/Mb (n = 39 atezolizumab, 50 docetaxel)

## CC(=O)O[C@@]12CO[C@@H]1C[C@H](O)[C@@]1(C)C(=O)[C@H](O)C3=C(C)[C@@H](OC(=O)[C@H](O)[C@@H](NC(=O)OC(C)(C)C)c4ccccc4)C[C@@](O)([C@@H](OC(=O)c4ccccc4)[C@H]21)C3(C)C [docetaxel]
[1]; POPLAR, per treatment arm
  ORR (confirmed per RECIST v1.1) with increasing tTMB: did not experience improvement in ORR
[1]; POPLAR, BEP (n = 54 atezolizumab vs 38 docetaxel)
  ORR: 15%
[1]; POPLAR, ITT (n = 144 atezolizumab vs 143 docetaxel)
  ORR: 15% vs 15%
[1]; POPLAR, tTMB quantile ≥25%
  ORR: 10%
[1]; POPLAR, tTMB quantile ≥50% (median)
  ORR: 4%
[1]; POPLAR, tTMB quantile ≥75%
  ORR: 8%
[1]; docetaxel arm, 2L+ NSCLC, randomized setting
  association of tissue TMB with efficacy: not associated with the efficacy
[2]; [3]
  Median OS: 9.8 months
  Median PFS: 3.81 months
[2]; ITT (n = 425 per arm)
  Median OS: 9.6 months
  Median PFS: 4.0 months
[2]; [4]
  Median OS: 10.8 months
  Median PFS: 4.1 months
[2]; [5]
  Median OS: 10.1 months
  Median PFS: 4.0 months
[2]; [6]
  Median OS: 9.7 months
  Median PFS: 3.6 months
[2]; [7]
  Median OS: 9.7 months
  Median PFS: 3.5 months
